Laboratory results taken from publication PMC6311682, “Design, Synthesis, and Biological Evaluation of 2-Nitroimidazopyrazin-one/-es with Antitubercular and Antiparasitic Activity” (Journal of Medicinal Chemistry, 2018).
Converted amounts (≈) assume the structure as drawn. Read-outs that look alike come from different tables or passages of the source.

Columns and labels:
[1] = Kinetic solubility determination by LC-UV; settings: room temperature, 1% DMSO
[2] = test system: C. albicans (ATCC 90028) and C. neoformans (H99, ATCC 208821); assay: Broth microdilution MIC assay, fungi; format: cell-based; settings: for MIC: Candida albicans, read-out: antifungal MIC
[3] = test system: C. difficile (630, ATCC BAA-1382); assay: Broth microdilution MIC assay, C. difficile; format: cell-based, Clostridium difficile; settings: 630 ATCC BAA-1382, median MIC; for MIC: Clostridioides difficile, ATCCBAA1382, read-out: antibacterial MIC C. difficile
[4] = Broth microdilution MIC assay, ESKAPE pathogens; format: cell-based; settings: S. aureus, E. coli, K. pneumoniae, A. baumannii, P. aeruginosa; read-out: antibacterial MIC ESKAPE
[5] = test system: ESKAPE pathogens S. aureus (ATCC 43300), E. coli (ATCC 25922), K. pneumoniae (ATCC 700603), A. baumannii (ATCC 19606), P. aeruginosa (ATCC 27853); assay: Broth microdilution MIC assay, ESKAPE pathogens; format: cell-based
[6] = Mammalian cytotoxicity assay (resazurin), HepG2; settings: human, HepG2 cells
[7] = test system: E. histolytica (HM1:IMSS); assay: ATP-bioluminescence cell growth and survival assay, E. histolytica trophozoites; format: cell-based; settings: Entamoeba histolytica
[8] = test system: L. donovani MHOM/IN/80/DD8 (ATCC50212); assay: L. donovani DD8 intracellular (THP-1) amastigote assay; format: cell-based; settings: Leishmania donovani
[9] = Mammalian cytotoxicity assay (resazurin), HEK293; settings: human, HEK293 cells
[10] = PBS, pH 7.4, Solubility µM (PBS), PBS pH 7.4, 24 h
[11] = water, Solubility µM (H2O), 24 h
[12] = read-out: antiparasitic IC50 E. histolytica
[13] = read-out: antiparasitic pIC50 ± SE E. histolytica (converted)
[14] = read-out: antiparasitic IC50 L. donovani
[15] = read-out: antiparasitic pIC50 ± SE L. donovani (converted)

Row | Structure (SMILES) | solubility at 24 h [1, 10] [µM] | solubility at 24 h [1, 11] [µM] | antifungal MIC [2] [µg/mL] | MIC [2] [µg/mL] | antibacterial MIC C. difficile [3] [µg/mL] | MIC [3] [µg/mL] | MIC [4] [µg/mL] | antibacterial MIC ESKAPE [5] [µg/mL] | CC50 at 24 h [6] [µM] | IC50 [7, 12] [µM] | IC50 [7, 13] [µM] | IC50 [8, 14] [µM] | IC50 [8, 15] [µM] | CC50 at 24 h [9] [µM]
1 | O=c1c2nc([N+](=O)[O-])cn2cc(-c2ccccc2)n1CCO [24d, 7-(2-Hydroxyethyl)-2-nitro-6-phenylimidazo[1,2-a]pyrazin-8(7H)-one] | 164 ± 21 (≈ 49.2 µg/mL) | 163 ± 15 (≈ 48.9 µg/mL) | >32 | > 32 | >64 | > 64 | > 32 | >32 | – | – | – | – | – | –
2 | Cc1c(C)n2cc([N+](=O)[O-])nc2c(=O)n1Cc1cccc(OC(F)(F)F)c1 [26f, 5,6-Dimethyl-2-nitro-7-(3-(trifluoromethoxy)benzyl)imidazo[1,2-a]pyrazin-8(7H)-one] | 15.7 ± 0.404 (≈ 6 µg/mL) | 15.9 ± 1.55 (≈ 6.08 µg/mL) | >32 | > 32 | – | – | > 32 | >32 | 25.6 to 80 | – | – | – | – | –
3 | O=c1c2nc([N+](=O)[O-])cn2ccn1CCO [17p, 7-(2-Hydroxyethyl)-2-nitroimidazo[1,2-a]pyrazin-8(7H)-one] | > 200 | > 200 | – | – | >64 | > 64 | > 32 | >32 | – | > 50 | > 50.1 | > 80 | > 79.4 | –
4 | O=C(NCc1ccccc1)c1nc([N+](=O)[O-])c[nH]1 [16b, N-Benzyl-5-nitro-1H-imidazole-2-carboxamide] | – | – | – | – | – | – | – | – | > 100 | – | – | – | – | > 100
5 | O=[N+]([O-])c1cn2ccnc(OCCc3ccc(OC(F)(F)F)cc3)c2n1 [18m, 2-Nitro-8-(4-(trifluoromethoxy)phenethoxy)imidazo[1,2-a]pyrazine] | – | – | – | – | – | 64 (≈ 174 µM) | > 32 | >32 | – | – | – | – | – | –
6 | O=c1c2nc([N+](=O)[O-])cn2ccn1CCN1CCOCC1 [17q, 4-(2-(2-Nitro-8-oxoimidazo[1,2-a]pyrazin-7(8H)-yl)ethyl)morpholin-4-ium 2,2,2-Trifluoroacetate] | – | – | – | – | >64 | > 64 | > 32 | >32 | – | > 50 | – | > 80 | > 79.4 | –
7 | O=c1[nH]ccn2cc([N+](=O)[O-])nc12 [17a, 2-Nitroimidazo[1,2-a]pyrazin-8(7H)-one] | > 200 | > 200 | – | – | >64 | > 64 | > 32 | >32 | – | > 25 | > 25.1 | > 80 | > 79.4 | –
8 | Cc1cn2cc([N+](=O)[O-])nc2c(OCc2cccc(OC(F)(F)F)c2)n1 [25k] | – | – | – | > 32 | – | – | > 32 | – | > 100 | – | – | > 40 | > 39.8 | > 100
9 | O=c1c2nc([N+](=O)[O-])cn2ccn1Cc1ccc(F)cc1F [17j, 7-(2,4-Difluorobenzyl)-2-nitroimidazo[1,2-a]pyrazin-8(7H)-one] | < 5 | < 5 | – | – | – | – | > 32 | >32 | – | > 50 | > 50.1 | > 40 | > 39.8 | –
10 | O=c1c2nc([N+](=O)[O-])cn2ccn1Cc1ccccn1 [17k, 2-Nitro-7-(pyridin-2-ylmethyl)imidazo[1,2-a]pyrazin-8(7H)-one, 1TFA] | – | – | – | – | >64 | > 64 | > 32 | >32 | – | > 50 | > 50.1 | > 80 | > 79.4 | –
11 | O=C(Cn1ccn2cc([N+](=O)[O-])nc2c1=O)N1CCOCC1 [17r, 7-(2-Morpholino-2-oxoethyl)-2-nitroimidazo[1,2-a]pyrazin-8(7H)-one] | 194 ± 0.526 (≈ 59.6 µg/mL) | 192 ± 1.51 (≈ 59 µg/mL) | – | – | >64 | > 64 | > 32 | >32 | – | > 50 | > 50.1 | > 80 | > 79.4 | –
12 | CC(c1ccc(F)cc1)n1ccn2cc([N+](=O)[O-])nc2c1=O (stereo not drawn) [17l, 7-(1-(4-Fluorophenyl)ethyl)-2-nitroimidazo[1,2-a]pyrazin-8(7H)-one] | < 10 | < 10 | – | – | >64 | > 64 | > 32 | >32 | – | > 50 | > 50.1 | > 80 | > 79.4 | –
13 | NC(=O)Cn1ccn2cc([N+](=O)[O-])nc2c1=O [17s, 2-(2-Nitro-8-oxoimidazo[1,2-a]pyrazin-7(8H)-yl)acetamide] | > 200 | > 200 | – | – | >64 | > 64 | > 32 | >32 | – | > 50 | > 50.1 | > 80 | > 79.4 | –
14 | O=c1c2nc([N+](=O)[O-])cn2ccn1Cc1ccccc1OC(F)(F)F [17i, 2-Nitro-7-(2-(trifluoromethoxy)benzyl)imidazo[1,2-a]pyrazin-8(7H)-one] | < 5 | < 5 | – | – | – | – | > 32 | >32 | – | > 50 | > 50.1 | > 40 | > 39.8 | –
15 | O=[N+]([O-])c1cn2ccnc(OCc3ccccc3OC(F)(F)F)c2n1 [18i, 2-Nitro-8-((2-(trifluoromethoxy)benzyl)oxy)imidazo[1,2-a]pyrazine] | < 5 | < 5 | – | – | – | – | > 32 | >32 | – | > 50 | > 50.1 | – | – | –
16 | Cc1ccc(Cn2cc([N+](=O)[O-])nc2C(N)=O)cc1 [28d] | – | – | – | – | – | – | – | – | > 100 | – | – | – | – | > 100
17 | Cc1ccc(Cn2ccn3cc([N+](=O)[O-])nc3c2=O)cc1 [17d, 7-(4-Methylbenzyl)-2-nitroimidazo[1,2-a]pyrazin-8(7H)-one] | < 5 | < 5 | – | – | – | – | > 32 | >32 | – | – | – | > 80 | > 79.4 | –
18 | NC(=O)c1nc([N+](=O)[O-])cn1Cc1ccccc1 [28b] | – | – | – | – | – | – | – | – | > 100 | – | – | – | – | > 100
19 | CC(=O)OCCn1ccn2cc([N+](=O)[O-])nc2c1=O [17o, 2-(2-Nitro-8-oxoimidazo[1,2-a]pyrazin-7(8H)-yl)ethyl Acetate] | – | – | – | – | >64 | > 64 | > 32 | >32 | – | > 50 | > 50.1 | > 80 | > 79.4 | –
20 | Cc1ccc(CNC(=O)c2nc([N+](=O)[O-])c[nH]2)cc1 [16d, N-(4-Methylbenzyl)-5-nitro-1H-imidazole-2-carboxamide] | – | – | – | – | – | – | – | – | > 100 | – | – | – | – | > 100
21 | Cc1cn2cc([N+](=O)[O-])nc2c(OCc2ccccc2OC(F)(F)F)n1 [25m, 6-Methyl-2-nitro-8-((2-(trifluoromethoxy)benzyl)oxy)imidazo[1,2-a]pyrazine] | < 5 | < 5 | – | > 32 | – | – | > 32 | – | > 100 | – | – | > 40 | > 39.8 | > 100
